# From publication PMC11087982, “In vitro and in vivo activities of a trithiolato-diRuthenium complex conjugated with sulfadoxine against the apicomplexan parasite Toxoplasma gondii” (International Journal for Parasitology: Drugs and Drug …, 2024)
# Read-outs that look alike come from different tables or passages of the source.
# What was measured:
# HFF = HFF host cell cytotoxicity, Alamar blue viability assay; assay type: cell-based, human; conditions: 72 h, uninfected HFF
# Procedure: (§1) To determine cytotoxicity of compounds on host cells, HFF were grown to confluency in 96 well plates and were treated with different concentrations of the drugs solubilized in medium during 72 h at 37 °C/5% CO2, or were treated with the corresponding concentration of DMSO only ([Desiatkina et al., 2020]; [Holzer et al., 2023]; [Păunescu et al., 2021]). The Alamar blue viability assay was used as previously described ([Desiatkina et al., 2020], [2021], [2022a], [2022b]; [Holzer et al., 2023]; [Păunescu et al., 2021]). In short, resazurin was added to each well at 0.01 mg/ml, and subsequently fluorescence of the produced resorufin was measured at excitation wavelength 544/20 nm and emission wavelength 590/20 nm using a Hidex Sense microplate reader (Hidex, Turku, Finland).
# [1] = test system: T. gondii β-gal tachyzoites; test: T. gondii β-Gal tachyzoite proliferation in HFF monolayers (β-galactosidase fluorometric assay); assay type: cell-based, Toxoplasma gondii
# Procedure: Effects of drugs on the proliferative capacity of T. gondii tachyzoites were investigated using a transgenic T. gondii RH strain constitutively expressing β-Galactosidase (T. gondii β-Gal ([Dc et al., 1997]);). Assays were carried out in 96 well plates in the presence or absence of the different compounds. For the quantification of β-Galactosidase activity, a fluorometric assay was applied as previously described ([Desiatkina et al., 2021]; [Păunescu et al., 2021]).
# [2] = test system: T. gondii β-gal tachyzoites; conditions: 2021, cited from earlier work
# [3] = HFF host cell cytotoxicity, Alamar blue viability assay; assay type: cell-based, human; conditions: human, uninfected HFF cells (confluent monolayer), read-out: viability (% of control ± SD)
# Procedure: as §1
# Non-infected HFF = test: TMRE uptake assay (mitochondrial membrane potential), non-infected HFF; assay type: cell-based, human; conditions: 0.5 μM, 3.5 h
# Procedure: (§2) 5 × 10^5 HFF were seeded into T25 culture flasks in DMEM complete medium and maintained in culture for 72 h to reach ⁓80% confluency. HFF monolayers were left either non-infected or were infected with 2 × 10^5 T. gondii Me49 tachyzoites. After another 48 h, the medium was removed from infected and non-infected T25 flasks and was replaced either by medium containing 0.5 μM RU-SDX, or in the case of non-treated controls, medium containing 0.05% DMSO. As positive controls, the two mitochondrial uncouplers FCCP and CCCP were applied at a concentration of 80 and 50 μM, respectively. PYR was applied at 0.5 μM as a control drug not affecting the MMP, and RU-adenine, used as a conjugate shown earlier to impact on the mitochondrial ultrastructure in T. gondii ([Anghel et al., 2021]; [Desiatkina et al., 2022b]), was also tested at 0.5 μM ([Anghel et al., 2021]; [Desiatkina et al., 2022b]). […] Fluorescence was measured using a Hidex Sense microplate reader instrument ([…]) with the excitation wavelength 544/20 nm and emitted light collected at 590/20 nm. Value from wells belonging to the same experimental condition were summed and the mean TMRE uptake in each condition was calculated from three biological replicates.
# T. gondii-infected HFF = test: TMRE uptake assay (mitochondrial membrane potential), T. gondii-infected HFF; assay type: cell-based, Toxoplasma gondii Me49 in human HFF; conditions: 0.5 μM, 3.5 h
# Procedure: as §2
smiles,measurement,setting,value
CC(C)(C)c1ccc(C[S-])cc1.CC(C)(C)c1ccc(C[S-])cc1.Cc1ccc(C(C)C)cc1.Cc1ccc(C(C)C)cc1.O=C(O)Cc1ccc([S-])cc1.[Cl-].[Ru+2].[Ru+2] [RU],viability (% of control ± SD),HFF; 2.5 μM,100 ± 10%
same,viability (% of control ± SD),HFF; 5 μM,70 ± 10%
same,viability (% of control ± SD),HFF; 10 μM,0 ± 0%
same,proliferation (% of control ± SD),[1]; 1.25 μM,^∗64 ± 10%
same,proliferation (% of control ± SD),[1]; 2.5 μM,^∗∗∗12 ± 2%
same,proliferation (% of control ± SD),[1]; 5 μM,^∗∗∗0 ± 0%
same,proliferation (% of control ± SD),"[2]; 1 μM, ref Păunescu et al.",^a110 ± 2%
same,proliferation (% of control ± SD),"[2]; 1.1 μM, ref Păunescu et al.",^a114 ± 2%
"COc1ncnc(NS(=O)(=O)c2ccc(N)cc2)c1OC [SDX, Sulfadoxine]","viability at 72 h, 2.5 µM",[3]; 2.5 μM,118 ± 6%
same,"viability at 72 h, 5 µM",[3]; 5 μM,106 ± 9%
same,"viability at 72 h, 10 µM",[3]; 10 μM,93 ± 5%
same,activity at 1.25 µM,"[1]; Toxoplasma gondii, 1.25 μM, read-out: proliferation (% of control ± SD)",127%
same,activity at 2.5 µM,"[1]; Toxoplasma gondii, 2.5 μM, read-out: proliferation (% of control ± SD)",113%
same,activity at 5 µM,"[1]; Toxoplasma gondii, 5 μM, read-out: proliferation (% of control ± SD)",112%
same,proliferation (% of control ± SD),"[2]; 1 μM, ref Desiatkina et al.",^b83 ± 2%
same,proliferation (% of control ± SD),"[2]; 1.1 μM, ref Desiatkina et al.","^b^, ^∗111 ± 3%"
"CCc1nc(N)nc(N)c1-c1ccc(Cl)cc1 [PYR, Pyrimethamine, reference compound]",TMRE fluorescence intensity / TMRE uptake (percentage of non-treated control = 100%),Non-infected HFF,99%
same,TMRE fluorescence intensity / TMRE uptake (percentage of non-treated control = 100%),T. gondii-infected HFF,106%
